Each structure is given as a SMILES string. Some results are limits rather than exact numbers.

As usually defined, the mortality is the percentage killed.

The first series has as its system Nippostrongylus brasiliensis. In words: In vitro assay with Nippostrongylus brasiliensis (NIPOBR), acetylcholine esterase readout. To be noted: 1 ppm (1 μg/ml), adult worms, read-out: activity (reduction of AChE compared to negative control). Here is the method: In Vitro Assay with Nippostrongylus brasiliensis (NIPOBR)
Adult Nippostrongylus brasiliensis were washed with saline buffer containing 100 U/ml penicillin, 0.1 mg/ml streptomycin and 2.5 μg/ml amphotericin B. Test compounds were dissolved in DMSO and worms were incubated in medium in a final concentration of 10 μg/ml (10 ppm) respectively 1 μg/ml (1 ppm). An aliquot of the medium was used to determine the acetylcholine esterase activity in comparison to a negative control. The principle of measuring acetylcholine esterase as readout for anthelmintic activity was described in Rapson et al (1986) and Rapson et al (1987).
Take `O=C(NCC(F)(F)c1ncc(-c2ccccc2)cc1Cl)c1ccccc1C(F)(F)F` [Example 5]: the inhibition at 1 ppm was at least 60%.

For the compound `COc1ccc(-c2cnc(C(F)(F)CNC(=O)c3ccccc3C(F)(F)F)c(Cl)c2)cc1` [Example 7], the inhibition at 1 ppm is at least 60%.

`O=C(NCC(F)(F)c1ncc(-c2ccc3c(c2)OCO3)cc1Cl)c1ccccc1C(F)(F)F` [Example 8]: the inhibition at 1 ppm was at least 60%.

As to `O=C(NCC(F)(F)c1ncc(-c2cc(Cl)cc(Cl)c2)cc1Cl)c1ccccc1C(F)(F)F` [Example 11], the inhibition at 1 ppm is at least 60%.

As to `O=C(NCC(F)(F)c1ncc(-c2ccc(F)c(F)c2)cc1Cl)c1ccccc1C(F)(F)F` [Example 14], the inhibition at 1 ppm was at least 60%.

With `O=C(NCC(F)(F)c1ncc(-c2ccc(Cl)cc2Cl)cc1Cl)c1ccccc1C(F)(F)F` [Example 15], the inhibition at 1 ppm is at least 60%.

`O=C(NCC(F)(F)c1ncc(-c2ccc(F)cc2)cc1Cl)c1ccccc1C(F)(F)F` [Example 24]: the inhibition at 1 ppm is at least 60%.

Still in this series, the particulars now being: 10 ppm (10 μg/ml), adult worms, read-out: activity (reduction of AChE compared to negative control).
As to `O=C(NCC(F)(F)c1ncc(-c2ccccc2)cc1Cl)c1ccccc1C(F)(F)F` [Example 5], the inhibition at 10 ppm was at least 60%.

Regarding `COc1ccc(-c2cnc(C(F)(F)CNC(=O)c3ccccc3C(F)(F)F)c(Cl)c2)cc1` [Example 7], the inhibition at 10 ppm is at least 60%.

In the case of `O=C(NCC(F)(F)c1ncc(-c2ccc3c(c2)OCO3)cc1Cl)c1ccccc1C(F)(F)F` [Example 8], the inhibition at 10 ppm was at least 60%.

As to `O=C(NCC(F)(F)c1ncc(-c2cc(Cl)cc(Cl)c2)cc1Cl)c1ccccc1C(F)(F)F` [Example 11], the inhibition at 10 ppm was at least 60%.

`O=C(NCC(F)(F)c1ncc(-c2ccc(F)c(F)c2)cc1Cl)c1ccccc1C(F)(F)F` [Example 14]: the inhibition at 10 ppm was at least 60%.

As for `O=C(NCC(F)(F)c1ncc(-c2ccc(Cl)cc2Cl)cc1Cl)c1ccccc1C(F)(F)F` [Example 15], the inhibition at 10 ppm is at least 60%.

On to `O=C(NCC(F)(F)c1ncc(-c2ccc(F)cc2)cc1Cl)c1ccccc1C(F)(F)F` [Example 24], for which the inhibition at 10 ppm is at least 60%.

The test system of the next series is Cooperia curticei. In words: In vitro assay with Cooperia curticei (COOPCU), larval mortality. The following applies: 120 h, read-out: activity (larval mortality). Here is the method:
In Vitro Assay with Cooperia curticei (COOPCU)
(§1) Solvent: Dimethyl Sulfoxide
(§2) To produce a suitable preparation of active compound, 10 mg of active compound are dissolved in 0.5 ml solvent, and the concentrate is diluted with “Ringer's solution” to the desired concentration.
Approximately 40 nematode larvae (Cooperia curticei) are transferred into a test tube containing the compound solution.
After 5 days percentage of larval mortality is recorded. 100% efficacy means all larvae are killed; 0% efficacy means no larvae are killed.
Turning to `O=C(NCC(F)(F)c1ncc(-c2ccccc2)cc1Cl)c1ccccc1C(F)(F)F` [Example 5], the mortality at 20 ppm came to 100%.

`COc1ccc(-c2cnc(C(F)(F)CNC(=O)c3ccccc3C(F)(F)F)c(Cl)c2)cc1` [Example 7]: the mortality at 20 ppm stood at 100%.

`O=C(NCC(F)(F)c1ncc(-c2ccc3c(c2)OCO3)cc1Cl)c1ccccc1C(F)(F)F` [Example 8]: the mortality at 20 ppm was 100%.

`O=C(NCC(F)(F)c1ncc(-c2cc(Cl)cc(Cl)c2)cc1Cl)c1ccccc1C(F)(F)F` [Example 11]: the mortality at 20 ppm came out at 100%.

Consider `O=C(NCC(F)(F)c1ncc(-c2ccc(F)c(F)c2)cc1Cl)c1ccccc1C(F)(F)F` [Example 14], for which the mortality at 20 ppm was determined as 100%.

Take `O=C(NCC(F)(F)c1ncc(-c2ccc(Cl)cc2Cl)cc1Cl)c1ccccc1C(F)(F)F` [Example 15]: the mortality at 20 ppm amounted to 100%.

`O=C(NCC(F)(F)c1ncc(-c2ccc(F)cc2)cc1Cl)c1ccccc1C(F)(F)F` [Example 24]: the mortality at 20 ppm was determined as 100%.

System in the next series: not listed separately
As to the kind of experiment: LogP by HPLC on reversed phase columns (EEC directive 79/831 Annex V.A8). The following applies: LC-UV, acidic range, 0.1% formic acid in water and acetonitrile; read-out: logP (HCOOH) [a]. It is filed as physicochemical. The procedure:
Calibration was done with straight-chain alkan2-ones (with 3 to 16 carbon atoms) with known Log P values (measurement of Log P values using retention times with linear interpolation between successive alkanones). Lambda-max-values were determined using UV-spectra from 200 nm to 400 nm and the peak values of the chromatographic signals.
For `COc1ccc(-c2cnc(C(F)(F)CNC(=O)c3ccccc3C(F)(F)F)c(Cl)c2)cc1` [Example 7], the chromatographic logP worked out at 3.68.

The series is the same for the next values; noted with them: logP (HCOOH) [a].
As to `O=C(NCC(F)(F)c1ncc(-c2ccccc2)cc1Cl)c1ccccc1C(F)(F)F` [Example 5], the chromatographic logP stood at 3.75.

Compound `O=C(NCC(F)(F)c1ncc(-c2ccc3c(c2)OCO3)cc1Cl)c1ccccc1C(F)(F)F` [Example 8] yielded a chromatographic logP of 3.53.

For the compound `O=C(NCC(F)(F)c1ncc(-c2cc(Cl)cc(Cl)c2)cc1Cl)c1ccccc1C(F)(F)F` [Example 11], the chromatographic logP turned out to be 4.64.

As to `O=C(NCC(F)(F)c1ncc(-c2ccc(F)c(F)c2)cc1Cl)c1ccccc1C(F)(F)F` [Example 14], the chromatographic logP came to 3.84.

For the compound `O=C(NCC(F)(F)c1ncc(-c2ccc(Cl)cc2Cl)cc1Cl)c1ccccc1C(F)(F)F` [Example 15], the chromatographic logP was found to be 4.57.

Consider `O=C(NCC(F)(F)c1ncc(-c2ccc(F)cc2)cc1Cl)c1ccccc1C(F)(F)F` [Example 24], for which the chromatographic logP was found to be 3.74.

For another series, the system named is Haemonchus contortus. In words: In vitro assay with Haemonchus contortus (HAEMCO), larval mortality. The following applies: 120 h, 20 ppm, after 5 days, read-out: activity (larval mortality). Here is the method: In Vitro Assay with Haemonchus contortus (HAEMCO)
as §1, §2
Approximately 40 larvae of the red stomach worm (Haemonchus contortus) are transferred into a test tube containing compound solution.
After 5 days percentage of larval mortality are recorded. 100% efficacy means all larvae are killed, 0% efficacy means no larvae are killed.
For `COc1ccc(-c2cnc(C(F)(F)CNC(=O)c3ccccc3C(F)(F)F)c(Cl)c2)cc1` [Example 7], the mortality at 20 ppm stood at 100%.

The series is the same for the next values; noted with them: 120 h, HAEMCO, 0.8 ppm, 5dat, comparative example, read-out: % Efficacy.
Consider `O=C(NCC(F)(F)c1ncc(-c2ccc(F)cc2)cc1Cl)c1ccccc1C(F)(F)F` [Example 24], for which the Emax at 0.8 ppm worked out at 100%.

The same series, now with this note: 120 h, HAEMCO, 4 ppm, 5dat, comparative example, read-out: % Efficacy.
Regarding `O=C(NCC(F)(F)c1ncc(-c2ccc(F)cc2)cc1Cl)c1ccccc1C(F)(F)F` [Example 24], the Emax at 4 ppm was determined as 100%.

The same series, now with this note: 120 h, HAEMCO, 20 ppm, 5dat, comparative example, read-out: % Efficacy.
In the case of `O=C(NCC(F)(F)c1ncc(-c2ccc(F)cc2)cc1Cl)c1ccccc1C(F)(F)F` [Example 24], the Emax at 20 ppm amounted to 100%.

The same series, now with this note: 120 h, read-out: activity (larval mortality).
Consider `O=C(NCC(F)(F)c1ncc(-c2ccccc2)cc1Cl)c1ccccc1C(F)(F)F` [Example 5], for which the mortality at 20 ppm came to 100%.

Take `O=C(NCC(F)(F)c1ncc(-c2ccc3c(c2)OCO3)cc1Cl)c1ccccc1C(F)(F)F` [Example 8]: the mortality at 20 ppm amounted to 100%.

Regarding `O=C(NCC(F)(F)c1ncc(-c2cc(Cl)cc(Cl)c2)cc1Cl)c1ccccc1C(F)(F)F` [Example 11], the mortality at 20 ppm was found to be 100%.

Turning to `O=C(NCC(F)(F)c1ncc(-c2ccc(F)c(F)c2)cc1Cl)c1ccccc1C(F)(F)F` [Example 14], the mortality at 20 ppm came out at 100%.

In the case of `O=C(NCC(F)(F)c1ncc(-c2ccc(Cl)cc2Cl)cc1Cl)c1ccccc1C(F)(F)F` [Example 15], the mortality at 20 ppm was 100%.

Regarding `O=C(NCC(F)(F)c1ncc(-c2ccc(F)cc2)cc1Cl)c1ccccc1C(F)(F)F` [Example 24], the mortality at 20 ppm is 100%.

In another series the test system is Meloidogyne incognita. As to the kind of experiment: Meloidogyne incognita (MELGIN) assay, gall formation on salad seedlings. It is filed as in vivo. To be noted: 336 h, after 14 days, read-out: nematicidal activity (percentage of gall formation; 100% = no galls). Here is the method:
Meloidogyne incognita (MELGIN) Assay
Solvent: 125.0 parts by weight of acetone
To produce a suitable preparation of active compound, 1 part by weight of active compound is mixed with the stated amount of solvent, and the concentrate is diluted with water to the desired concentration.
Vessels are filled with sand, a solution of the active ingredient, a suspension containing eggs and larvae of the southern root-knot nematode (Meloidogyne incognita) and salad seeds. The salad seeds germinate and the seedlings grow. Galls develop in the roots.
After 14 days the nematicidal activity is determined on the basis of the percentage of gall formation. 100% means no galls were found and 0% means the number of galls found on the roots of the treated plants was equal to that in untreated control plants.
With `O=C(NCC(F)(F)c1ncc(-c2ccccc2)cc1Cl)c1ccccc1C(F)(F)F` [Example 5], the pest or weed control at 20 ppm was 90%.

Consider `COc1ccc(-c2cnc(C(F)(F)CNC(=O)c3ccccc3C(F)(F)F)c(Cl)c2)cc1` [Example 7], for which the pest or weed control at 20 ppm was determined as 100%.

As for `O=C(NCC(F)(F)c1ncc(-c2ccc3c(c2)OCO3)cc1Cl)c1ccccc1C(F)(F)F` [Example 8], the pest or weed control at 20 ppm stood at 100%.

Regarding `O=C(NCC(F)(F)c1ncc(-c2cc(Cl)cc(Cl)c2)cc1Cl)c1ccccc1C(F)(F)F` [Example 11], the pest or weed control at 20 ppm amounted to 90%.

As for `O=C(NCC(F)(F)c1ncc(-c2ccc(F)c(F)c2)cc1Cl)c1ccccc1C(F)(F)F` [Example 14], the pest or weed control at 20 ppm is 100%.

On to `O=C(NCC(F)(F)c1ncc(-c2ccc(Cl)cc2Cl)cc1Cl)c1ccccc1C(F)(F)F` [Example 15], for which the pest or weed control at 20 ppm was 90%.

On to `O=C(NCC(F)(F)c1ncc(-c2ccc(F)cc2)cc1Cl)c1ccccc1C(F)(F)F` [Example 24], for which the pest or weed control at 20 ppm is 100%.
